Data from publication PMC10046946, “Novel Phthalic-Based Anticancer Tyrosine Kinase Inhibitors: Design, Synthesis and Biological Activity” (Current Issues in Molecular Biology, 2023).
Entries after “also recorded” stand apart in the source; their conditions may differ.

Assays:
[1] = test system: HL-60 (promyelocytic leukemia); assay: MTT cell proliferation assay, HL-60; format: cell-based; conditions: Homo sapiens, HL-60, 72 h of exposition, read-out: Anti-proliferative activity IC50, HL-60
In short: (§1)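 Antiproliferative effect is expressed as IC50 from MTT viability measurements, run on a six-line cancer panel alongside normal human B lymphocytes (RPMI 1788) to gauge systemic toxicity.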

[2] = test system: K562 cell line; assay: ROS determination (DCFH-DA, flow cytometry); format: cell-based; conditions: 48 h
Description: The redox status was assessed using the K562 cell line. […] Then, the cells were washed to remove the 2′,7′-dichlorodihydrofluorescein diacetate by centrifugation at 1000 rpm for 5 min. The measurements were conducted using a Cytomics FC500 Beckman Coulter flow cytometer (FL1 channel for DCF).

[3] = biological target: T1, HER2 (Homo sapiens, UniProt P04626); assay: ADP-Glo kinase assay, HER2; format: biochemical
T1 construct: purchased Promega
Description: (§2) The ADP-Glo kinase assay (Promega, Madison, WI, USA) was used to screen compounds 5, 8–10, 14, 17, 19 and 24 for the tyrosine kinase (Kinase Selectivity Profiling System TK-1, Promega, Madison, WI, USA) and serine/threonine kinase (Kinase Selectivity Profiling System Other/CK-1, Promega, Madison, WI, USA) inhibition effects according to the manufacturer’s technical manual. The luminescence data were analyzed as described in our prior work.
(§3) The selectivity of the potential kinase inhibitor against a specific protein kinase or a specific family of kinases was investigated using the Kinase Selectivity Profiling System TK-1, Other/CK-1 and ADP-Glo™ Kinase assay kit (Promega, Madison, WI, USA).

[4] = biological target: T2, InsR (insulin receptor) (Homo sapiens, UniProt P06213); assay: ADP-Glo kinase assay, InsR; format: biochemical
T2 construct: purchased Promega
Description: as §2, §3

[5] = biological target: T3, PDGFRα (Homo sapiens, UniProt P16234); assay: ADP-Glo kinase assay, PDGFRα; format: biochemical
T3 construct: purchased Promega
In short: (§4)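 ADP-Glo format, TK selectivity panel, kit protocol; inhibition derived from luminescence.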

[6] = biological target: T4, PDGFRβ (Homo sapiens, UniProt P09619); assay: ADP-Glo kinase assay, PDGFRβ; format: biochemical
T4 construct: purchased Promega
In short: as §4

[7] = test system: A549 (lung carcinoma); assay: MTT cell proliferation assay, A549; format: cell-based; conditions: Homo sapiens, A549, 72 h of exposition, read-out: Anti-proliferative activity IC50, A549
In short: as §1

[8] = test system: K562 cells; assay: Cell cycle analysis (propidium iodide, flow cytometry); format: cell-based; conditions: 48 h
Description: Tumor cells were seeded on a 6-well plate at a density of 400,000 per well for K562. Test compounds 5, 14 and 15 were added at concentrations of 1, 5 and 10 μM in duplicate for 48 h. The methodology and analysis of the obtained data were performed as described in our prior work.
As shown above, compounds 5, 14 and 15 had significant antiproliferative activities, which is why their influences on the cell cycle and apoptosis level were determined, with the aim of understanding whether these effects are cytostatic or cytotoxic. In the cell cycle experiments, K562 cells were used. […] For the determination of changes in the distribution of cells in the phases of the cell cycle, the widely employed method of staining the cells with propidium iodide was used.

[9] = test system: HepG2 (human liver cancer); assay: MTT cell proliferation assay, HepG2; format: cell-based; conditions: Homo sapiens, HepG2, 72 h, HepG2, 72 h of exposition, read-out: Anti-proliferative activity IC50, HepG2
In short: as §1

[10] = biological target: T5, HER4 (Homo sapiens, UniProt Q15303); assay: ADP-Glo kinase assay, HER4; format: biochemical
T5 construct: purchased Promega
Description: as §2, §3

[11] = test system: OKP-GS (renal cell carcinoma); assay: MTT cell proliferation assay, OKP-GS; format: cell-based; conditions: 72 h of exposition, read-out: Anti-proliferative activity IC50, OKP-GS
In short: as §1

[12] = test system: RPMI 1788 cells (B lymphocyte, human); assay: MTT cell proliferation assay, normal RPMI 1788 cells; format: cell-based; conditions: normal human lymphoblastoid cells RPMI 1788, 72 h of exposition, read-out: Anti-proliferative activity IC50, RPMI 1788
In short: as §1

[13] = test system: MCF-7 (breast adenocarcinoma); assay: MTT cell proliferation assay, MCF-7; format: cell-based; conditions: Homo sapiens, MCF7, MCF-7, 72 h of exposition, read-out: Anti-proliferative activity IC50, MCF-7
In short: as §1

[14] = test system: K562 (chronic myelogenous leukemia); assay: MTT cell proliferation assay, K562; format: cell-based; conditions: Homo sapiens, K562, 72 h of exposition, read-out: Anti-proliferative activity IC50, K562
In short: as §1

[15] = test system: cancer cell lines (K562, HL-60, MCF-7, HepG2, A549, OKP-GS); assay: MTT cell proliferation assay, statements over the whole cell line panel; format: cell-based; conditions: statement over the cell line panel, studied concentration range up to 50 µM
Description: Tests to determine the effects of the synthesized compounds on cell viability and the half-maximal inhibitory concentration (IC50) were performed using the MTT assay, as described in our prior work.
The target compounds 5, 6, 8–12, 14, 15, 17–22 and 24–26 were tested for antiproliferative activity against six cancer cell lines: K562 (chronic myelogenous leukemia), HL-60 (promyelocytic leukemia), MCF-7 (breast adenocarcinoma), HepG2 (human liver cancer), A549 (lung carcinoma) and OKP-GS (renal cell carcinoma). The RPMI 1788 cells (B lymphocyte, human) were used as a control to evaluate the system toxicity of the studied compounds to normal cells. Sorafenib, nilotinib and lapatinib were utilized as reference standards for comparison.

[16] = biological target: T6, IGF1R (insulin-like growth factor 1 receptor) (Homo sapiens, UniProt P08069); assay: ADP-Glo kinase assay, IGF1R; format: biochemical
T6 construct: purchased Promega
Description: as §2, §3

[17] = biological target: T7, Aurora B (Homo sapiens, UniProt Q96GD4); assay: ADP-Glo kinase assay, Aurora B; format: biochemical
T7 construct: purchased Promega
Description: as §2, §3

[18] = biological target: T8, Aurora A (Homo sapiens, UniProt O14965); assay: ADP-Glo kinase assay, Aurora A; format: biochemical
T8 construct: purchased Promega
T8 sequence (O14965 1-403): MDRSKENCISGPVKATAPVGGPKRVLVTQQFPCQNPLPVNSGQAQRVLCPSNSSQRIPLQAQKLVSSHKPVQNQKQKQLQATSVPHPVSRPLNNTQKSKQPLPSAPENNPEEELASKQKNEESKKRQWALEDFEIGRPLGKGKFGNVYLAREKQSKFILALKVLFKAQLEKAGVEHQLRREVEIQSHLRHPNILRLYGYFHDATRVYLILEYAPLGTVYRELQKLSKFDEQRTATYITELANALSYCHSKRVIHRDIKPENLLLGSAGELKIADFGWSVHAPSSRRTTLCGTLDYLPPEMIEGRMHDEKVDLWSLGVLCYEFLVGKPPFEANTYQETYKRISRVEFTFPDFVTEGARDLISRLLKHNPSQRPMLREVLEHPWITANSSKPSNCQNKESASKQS
Description: as §2, §3

[19] = biological target: T9, KDR (VEGFR-2) (Homo sapiens, UniProt P35968); assay: ADP-Glo kinase assay, KDR; format: biochemical
T9 construct: purchased Promega

[20] = biological target: T10, EGFR (Homo sapiens, UniProt P00533); assay: ADP-Glo kinase assay, EGFR; format: biochemical
T10 construct: purchased Promega

T1 sequence (P04626 23-1255): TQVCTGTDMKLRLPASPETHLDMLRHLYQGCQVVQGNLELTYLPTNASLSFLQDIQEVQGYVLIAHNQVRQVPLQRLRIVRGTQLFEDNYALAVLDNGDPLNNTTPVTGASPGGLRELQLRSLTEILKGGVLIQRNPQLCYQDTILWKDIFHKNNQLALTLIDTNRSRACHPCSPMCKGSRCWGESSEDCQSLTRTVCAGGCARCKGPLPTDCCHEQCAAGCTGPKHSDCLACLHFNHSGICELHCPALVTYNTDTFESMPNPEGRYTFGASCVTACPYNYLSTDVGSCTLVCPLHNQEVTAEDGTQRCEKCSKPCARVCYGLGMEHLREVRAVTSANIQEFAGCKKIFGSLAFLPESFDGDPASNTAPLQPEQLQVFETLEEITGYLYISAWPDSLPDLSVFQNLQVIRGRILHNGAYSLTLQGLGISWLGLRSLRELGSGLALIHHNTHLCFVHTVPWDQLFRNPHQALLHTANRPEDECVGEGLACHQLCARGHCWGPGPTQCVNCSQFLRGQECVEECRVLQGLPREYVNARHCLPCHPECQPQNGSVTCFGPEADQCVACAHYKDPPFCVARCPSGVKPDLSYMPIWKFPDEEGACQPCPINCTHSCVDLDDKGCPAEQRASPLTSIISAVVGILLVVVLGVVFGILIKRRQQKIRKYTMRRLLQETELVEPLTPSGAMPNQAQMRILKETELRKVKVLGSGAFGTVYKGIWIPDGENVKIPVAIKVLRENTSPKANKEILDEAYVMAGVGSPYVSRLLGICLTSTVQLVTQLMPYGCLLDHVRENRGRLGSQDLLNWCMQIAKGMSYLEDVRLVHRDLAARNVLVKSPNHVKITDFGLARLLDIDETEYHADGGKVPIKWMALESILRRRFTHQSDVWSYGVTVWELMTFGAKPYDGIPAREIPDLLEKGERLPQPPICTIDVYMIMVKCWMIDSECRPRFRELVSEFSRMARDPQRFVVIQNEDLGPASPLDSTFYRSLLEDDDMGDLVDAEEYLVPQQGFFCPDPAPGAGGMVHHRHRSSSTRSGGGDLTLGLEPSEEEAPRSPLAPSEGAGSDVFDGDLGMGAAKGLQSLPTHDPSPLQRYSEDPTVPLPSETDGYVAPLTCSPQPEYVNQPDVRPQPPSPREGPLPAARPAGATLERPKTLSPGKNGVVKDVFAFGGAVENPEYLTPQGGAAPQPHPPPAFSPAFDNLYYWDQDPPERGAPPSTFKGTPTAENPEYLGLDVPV
T5 sequence (Q15303 26-1308): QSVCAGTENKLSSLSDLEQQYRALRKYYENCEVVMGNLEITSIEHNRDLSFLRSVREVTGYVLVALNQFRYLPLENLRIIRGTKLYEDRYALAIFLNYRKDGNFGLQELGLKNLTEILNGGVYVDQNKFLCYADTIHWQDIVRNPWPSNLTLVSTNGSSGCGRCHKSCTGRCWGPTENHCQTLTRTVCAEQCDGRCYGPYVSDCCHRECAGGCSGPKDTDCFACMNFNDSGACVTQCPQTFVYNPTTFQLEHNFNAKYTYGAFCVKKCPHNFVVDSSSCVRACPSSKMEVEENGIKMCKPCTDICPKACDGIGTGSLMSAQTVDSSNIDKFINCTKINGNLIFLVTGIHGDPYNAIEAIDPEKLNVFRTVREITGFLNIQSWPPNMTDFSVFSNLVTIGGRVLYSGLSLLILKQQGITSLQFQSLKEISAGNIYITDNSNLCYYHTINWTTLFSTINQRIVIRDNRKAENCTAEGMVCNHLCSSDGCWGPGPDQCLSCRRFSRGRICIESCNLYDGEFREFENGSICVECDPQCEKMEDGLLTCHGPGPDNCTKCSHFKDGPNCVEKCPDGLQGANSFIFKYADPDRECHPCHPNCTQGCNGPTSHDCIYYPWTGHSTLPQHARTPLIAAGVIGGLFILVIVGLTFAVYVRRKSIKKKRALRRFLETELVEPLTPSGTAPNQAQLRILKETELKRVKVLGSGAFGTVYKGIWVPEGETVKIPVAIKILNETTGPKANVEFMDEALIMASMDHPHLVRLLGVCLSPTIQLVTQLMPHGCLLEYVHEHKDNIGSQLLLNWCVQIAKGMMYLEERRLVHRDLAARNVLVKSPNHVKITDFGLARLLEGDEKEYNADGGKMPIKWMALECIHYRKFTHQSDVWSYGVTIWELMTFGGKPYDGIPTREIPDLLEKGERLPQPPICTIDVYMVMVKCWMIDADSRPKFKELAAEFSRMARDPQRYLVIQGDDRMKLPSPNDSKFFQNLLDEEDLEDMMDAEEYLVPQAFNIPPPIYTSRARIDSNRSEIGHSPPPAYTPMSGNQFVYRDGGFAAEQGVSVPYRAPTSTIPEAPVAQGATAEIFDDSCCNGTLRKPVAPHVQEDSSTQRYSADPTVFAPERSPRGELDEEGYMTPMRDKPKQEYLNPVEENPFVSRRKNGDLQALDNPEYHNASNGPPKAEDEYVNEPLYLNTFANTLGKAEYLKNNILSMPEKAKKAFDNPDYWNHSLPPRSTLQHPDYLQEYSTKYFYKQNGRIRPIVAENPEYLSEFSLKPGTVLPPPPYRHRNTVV
T2 sequence (P06213 28-1382): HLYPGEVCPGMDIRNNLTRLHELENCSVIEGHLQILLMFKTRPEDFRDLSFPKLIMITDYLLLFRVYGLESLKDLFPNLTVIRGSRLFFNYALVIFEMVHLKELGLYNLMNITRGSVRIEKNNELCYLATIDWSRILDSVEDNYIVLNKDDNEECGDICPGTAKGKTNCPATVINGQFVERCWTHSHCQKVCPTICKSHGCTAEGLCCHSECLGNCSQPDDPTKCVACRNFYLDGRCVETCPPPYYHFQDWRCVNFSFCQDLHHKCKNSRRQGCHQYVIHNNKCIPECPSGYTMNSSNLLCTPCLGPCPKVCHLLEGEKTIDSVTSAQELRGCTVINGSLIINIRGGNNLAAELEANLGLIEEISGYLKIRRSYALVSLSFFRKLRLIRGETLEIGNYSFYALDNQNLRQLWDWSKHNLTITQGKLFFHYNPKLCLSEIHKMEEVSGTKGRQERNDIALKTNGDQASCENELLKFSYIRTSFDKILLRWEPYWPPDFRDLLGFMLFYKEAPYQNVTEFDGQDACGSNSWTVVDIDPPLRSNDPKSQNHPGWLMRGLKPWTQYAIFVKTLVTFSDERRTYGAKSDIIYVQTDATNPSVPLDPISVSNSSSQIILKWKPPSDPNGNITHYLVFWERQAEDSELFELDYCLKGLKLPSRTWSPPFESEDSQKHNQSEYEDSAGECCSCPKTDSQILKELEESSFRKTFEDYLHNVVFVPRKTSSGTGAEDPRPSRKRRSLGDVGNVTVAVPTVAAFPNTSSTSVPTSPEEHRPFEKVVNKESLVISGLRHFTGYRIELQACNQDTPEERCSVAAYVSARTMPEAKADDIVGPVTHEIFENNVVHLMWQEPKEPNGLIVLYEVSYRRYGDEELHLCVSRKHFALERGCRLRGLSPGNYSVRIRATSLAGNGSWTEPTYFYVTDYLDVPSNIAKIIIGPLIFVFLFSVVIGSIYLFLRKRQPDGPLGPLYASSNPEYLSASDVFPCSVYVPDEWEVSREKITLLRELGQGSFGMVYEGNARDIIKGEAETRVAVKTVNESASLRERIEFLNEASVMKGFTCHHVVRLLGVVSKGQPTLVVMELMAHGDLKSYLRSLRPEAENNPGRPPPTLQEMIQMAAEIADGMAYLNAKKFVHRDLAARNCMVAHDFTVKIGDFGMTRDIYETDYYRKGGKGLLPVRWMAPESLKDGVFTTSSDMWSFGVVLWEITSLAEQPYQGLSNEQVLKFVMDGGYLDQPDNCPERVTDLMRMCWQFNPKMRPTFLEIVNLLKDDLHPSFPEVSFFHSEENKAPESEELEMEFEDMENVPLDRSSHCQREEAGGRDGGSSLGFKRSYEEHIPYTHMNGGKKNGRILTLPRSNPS
T4 sequence (P09619 33-1106): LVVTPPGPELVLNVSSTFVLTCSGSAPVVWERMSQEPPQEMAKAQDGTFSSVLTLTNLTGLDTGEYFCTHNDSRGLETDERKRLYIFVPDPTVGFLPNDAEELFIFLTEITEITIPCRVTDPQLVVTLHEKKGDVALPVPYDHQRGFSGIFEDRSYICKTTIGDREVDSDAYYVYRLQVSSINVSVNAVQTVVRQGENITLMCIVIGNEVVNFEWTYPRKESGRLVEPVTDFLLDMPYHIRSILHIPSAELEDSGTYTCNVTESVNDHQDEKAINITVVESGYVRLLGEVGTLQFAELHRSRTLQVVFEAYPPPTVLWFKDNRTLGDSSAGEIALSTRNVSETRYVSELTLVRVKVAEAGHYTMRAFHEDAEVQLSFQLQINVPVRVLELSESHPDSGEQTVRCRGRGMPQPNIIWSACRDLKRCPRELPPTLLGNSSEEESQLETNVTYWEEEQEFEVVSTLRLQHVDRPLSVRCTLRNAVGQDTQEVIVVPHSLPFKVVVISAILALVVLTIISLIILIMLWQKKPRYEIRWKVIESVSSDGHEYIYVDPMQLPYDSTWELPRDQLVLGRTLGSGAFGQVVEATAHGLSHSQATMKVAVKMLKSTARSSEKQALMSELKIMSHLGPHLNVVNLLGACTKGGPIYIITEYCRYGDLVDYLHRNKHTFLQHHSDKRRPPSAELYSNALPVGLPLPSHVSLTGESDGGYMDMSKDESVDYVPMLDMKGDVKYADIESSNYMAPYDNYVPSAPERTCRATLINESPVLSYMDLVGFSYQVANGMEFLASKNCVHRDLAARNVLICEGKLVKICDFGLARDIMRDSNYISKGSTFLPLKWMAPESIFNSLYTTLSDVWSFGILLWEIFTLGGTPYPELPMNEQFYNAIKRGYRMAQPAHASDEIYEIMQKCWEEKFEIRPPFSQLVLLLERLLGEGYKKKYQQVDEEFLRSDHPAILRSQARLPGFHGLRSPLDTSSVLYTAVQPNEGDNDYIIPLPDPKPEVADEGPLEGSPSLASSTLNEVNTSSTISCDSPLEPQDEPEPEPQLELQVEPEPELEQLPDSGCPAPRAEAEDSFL

IC50 [1]	inhibition at 10 µM [3]	inhibition at 10 µM [4]	inhibition at 10 µM [5]	inhibition at 10 µM [6]	IC50 [7]	IC50 [9]	inhibition at 10 µM [10]	IC50 [11]	IC50 [13]	IC50 [14]	inhibition at 10 µM [16]	melting point	SMILES	IC50 [12]	Antiproliferative activity (IC50) over the studied cell cultures [15]	also measured
10.6 ± 1.02 µM	76%	0%	2%	10%	18.6 ± 2.65 µM	27.1 ± 0.08 µM	100%	7.32 ± 2.15 µM	10.9 ± 0.34 µM	9.62 ± 1.56 µM	0%	–	CS(=O)(=O)CCNCc1ccc(-c2ccc3ncnc(Nc4ccc(OCc5cccc(F)c5)c(Cl)c4)c3c2)o1 [Lapatinib, reference compound]	9.31 ± 0.9 µM	–	ROS Level, % of Control ([2]; K562, 5 µM): 64.12 % of Control; ROS Level, % of Control ([2]; K562, 10 µM): 72.23 % of Control; ROS Level, % of Control ([2]; K562, 20 µM): 89.07 % of Control; Apoptosis, % (cell cycle analysis) ([8]; K562, 1 µM): 14.74%; G1, % ([8]; K562, 1 µM): 34.47%; G2/M, % ([8]; K562, 1 µM): 52.23%; S, % ([8]; K562, 1 µM): 13.31%; Apoptosis, % (cell cycle analysis) ([8]; K562, 5 µM): 28.92%; G1, % ([8]; K562, 5 µM): 31.31%; G2/M, % ([8]; K562, 5 µM): 55.68%; S, % ([8]; K562, 5 µM): 13.02%; IC50 ([15]; read-out: Antiproliferative activity (IC50) over the studied cell cultures): 2 to 27 µM
> 50 µM	13%	0%	≤ 20%	15%	> 50 µM	> 50 µM	0%	> 50 µM	> 50 µM	15.6 µM	0%	208 to 210 °C	Cc1cn(-c2cc(NC(=O)c3ccc(C(=O)Nc4cccc(C(F)(F)F)c4)cc3)cc(C(F)(F)F)c2)cn1 [Compound 17, N1-(3-(4-methyl-1H-imidazol-1-yl)-5-(trifluoromethyl)phenyl)-N4-(3-(trifluoromethyl)phenyl)-terephthalamide]	> 50 µM	practically did not affect the cell lines’ viability; also recorded: almost no effect on the cell lines’ viability	inhibition at 10 µM [17]: 0%; inhibition at 10 µM [18]: 0%; inhibition at 10 µM [19]: 0%; inhibition at 10 µM [20]: 0%
> 50 µM	–	–	–	–	> 50 µM	> 50 µM	–	26.5 ± 3.65 µM	> 50 µM	> 50 µM	–	313 to 315 °C	CNC(=O)c1cc(Oc2ccc(NC(=O)c3cccc(C(=O)Nc4cc(-n5cnc(C)c5)cc(C(F)(F)F)c4)c3)cc2)ccn1 [Compound 11, N1-(3-(4-methyl-1H-imidazol-1-yl)-5-(trifluoromethyl)phenyl)-N3-(4-((2-(methylcarbamoyl)pyridin-4-yl)oxy)phenyl)isophthalamide]	21.9 ± 0.44 µM	lack of sensitivity of the cancer cells in the studied concentration range	–
